Assay results published in ChEMBL document CHEMBL6134832, “Expanding the utilization of binding pockets proves to be effective for noncovalent small molecule inhibitors against SARS-CoV-2 Mpro” (Eur J Med Chem, 2025).

How the values were obtained:
CYP3A4/CYP3A5 = CYP3A4/CYP3A5 (Homo sapiens, UniProt P08684+P20815); experiment: Inhibition of CYP3A4/CYP3A5 (unknown origin)
[1] = Cytotoxicity against African green monkey Vero E6 cells assessed as cell viability measured after 72 hrs by Celltiter-glo luminescent cell viability assay; type: toxicity, cell-based, Vero C1008; settings: chlorocebus sabaeus
[2] = target: Voltage-gated inwardly rectifying potassium channel KCNH2 (Homo sapiens, UniProt Q12809)
[3] = Toxicity in K18-hACE2 transgenic mouse infected with SARS-CoV-2 Omicron BA.5 assessed as body weight loss at 15 to 90 mg/kg, po treated 2 hrs before infection measured on 4 dpi; type: organism-based; settings: in vivo, 98 h, dose 15-90 mg/kg
[4] = Oral bioavailability in mouse; type: ADME, organism-based; settings: in vivo
SARS-CoV-2 [5] = experiment: Antiviral activity against wild type SARS-CoV-2 infected in African green monkey Vero E6 cells assessed as inhibition of virus induced cytopathic effect measured after 72 hrs by cytometric analysis; type: functional, organism-based; settings: Severe acute respiratory syndrome coronavirus 2, Vero C1008, 72 h
SARS-CoV-2 [6] = experiment: Antiviral activity against SARS-CoV-2 XBB.1 infected in African green monkey Vero E6 cells assessed as inhibition of virus induced cytopathic effect measured after 72 hrs by cytometric analysis; type: functional, organism-based; settings: Severe acute respiratory syndrome coronavirus 2, XBB.1, Vero C1008, 72 h
[7] = AUC in po dosed mouse; type: ADME, organism-based; settings: in vivo
[8] = Metabolic stability in mouse liver microsomes assessed as half life; type: ADME, Microsome
SARS-CoV-2 [9] = experiment: Antiviral activity against SARS-CoV-2 Omicron BA.5 infected in African green monkey Vero E6 cells assessed as inhibition of virus induced cytopathic effect measured after 72 hrs by cytometric analysis; type: functional, organism-based; settings: Severe acute respiratory syndrome coronavirus 2, Omicron BA.5, Vero C1008, 72 h
[10] = Metabolic stability in human liver microsomes assessed as half life; type: ADME, Microsome
SARS-CoV-2 [11] = experiment: Antiviral activity against SARS-CoV-2 delta IM2175251 infected in African green monkey Vero E6 cells assessed as inhibition of virus induced cytopathic effect measured after 72 hrs by cytometric analysis; type: functional, organism-based; settings: Severe acute respiratory syndrome coronavirus 2, delta IM2175251, Vero C1008, 72 h
[12] = Apparent permeability across apical to basolateral side in human Caco-2 cells
SARS-CoV-2 [13] = experiment: Antiviral activity against SARS-CoV-2 EG.5 infected in African green monkey Vero E6 cells assessed as inhibition of virus induced cytopathic effect measured after 72 hrs by cytometric analysis; type: functional, organism-based; settings: Severe acute respiratory syndrome coronavirus 2, EG.5, Vero C1008, 72 h
[14] = Half life in mouse at 10 mg/kg, po; type: ADME, organism-based; settings: in vivo
[15] = Apparent permeability across basolateral to apical side in human Caco-2 cells
[16] = Half life in mouse at 1 mg/kg, iv; type: ADME, organism-based; settings: in vivo
[17] = Toxicity in K18-hACE2 transgenic mouse infected with SARS-CoV-2 Omicron BA.5 assessed as abnormal behaviors at 15 to 90 mg/kg, po treated 2 hrs before infection measured on 4 dpi; type: organism-based; settings: in vivo, 98 h, dose 15-90 mg/kg
[18] = Inhibition of full-length SARS-CoV-2 MPro expressed in Escherichia coli BL21 (DE3) using MCA-AVLQSGFR-Lys (Dnp)-Lys-NH2 as substrate pre-incubated for 30 mins followed by substrate addition and measured after 20 mins by FRET assay; design: species or system Severe acute respiratory syndrome coronavirus 2
[19] = Toxicity in K18-hACE2 transgenic mouse infected with SARS-CoV-2 Omicron BA.5 assessed as body weight loss at 20 to 80 mg/kg, po treated 2 hrs before infection measured on 4 dpi; type: organism-based; settings: in vivo, 98 h, dose 20-80 mg/kg
[20] = Toxicity in K18-hACE2 transgenic mouse infected with SARS-CoV-2 Omicron BA.5 assessed as abnormal behaviors at 20 to 80 mg/kg, po treated 2 hrs before infection measured on 4 dpi; type: organism-based; settings: in vivo, 98 h, dose 20-80 mg/kg

Sequence of Voltage-gated inwardly rectifying potassium channel KCNH2 (Q12809 whole entry): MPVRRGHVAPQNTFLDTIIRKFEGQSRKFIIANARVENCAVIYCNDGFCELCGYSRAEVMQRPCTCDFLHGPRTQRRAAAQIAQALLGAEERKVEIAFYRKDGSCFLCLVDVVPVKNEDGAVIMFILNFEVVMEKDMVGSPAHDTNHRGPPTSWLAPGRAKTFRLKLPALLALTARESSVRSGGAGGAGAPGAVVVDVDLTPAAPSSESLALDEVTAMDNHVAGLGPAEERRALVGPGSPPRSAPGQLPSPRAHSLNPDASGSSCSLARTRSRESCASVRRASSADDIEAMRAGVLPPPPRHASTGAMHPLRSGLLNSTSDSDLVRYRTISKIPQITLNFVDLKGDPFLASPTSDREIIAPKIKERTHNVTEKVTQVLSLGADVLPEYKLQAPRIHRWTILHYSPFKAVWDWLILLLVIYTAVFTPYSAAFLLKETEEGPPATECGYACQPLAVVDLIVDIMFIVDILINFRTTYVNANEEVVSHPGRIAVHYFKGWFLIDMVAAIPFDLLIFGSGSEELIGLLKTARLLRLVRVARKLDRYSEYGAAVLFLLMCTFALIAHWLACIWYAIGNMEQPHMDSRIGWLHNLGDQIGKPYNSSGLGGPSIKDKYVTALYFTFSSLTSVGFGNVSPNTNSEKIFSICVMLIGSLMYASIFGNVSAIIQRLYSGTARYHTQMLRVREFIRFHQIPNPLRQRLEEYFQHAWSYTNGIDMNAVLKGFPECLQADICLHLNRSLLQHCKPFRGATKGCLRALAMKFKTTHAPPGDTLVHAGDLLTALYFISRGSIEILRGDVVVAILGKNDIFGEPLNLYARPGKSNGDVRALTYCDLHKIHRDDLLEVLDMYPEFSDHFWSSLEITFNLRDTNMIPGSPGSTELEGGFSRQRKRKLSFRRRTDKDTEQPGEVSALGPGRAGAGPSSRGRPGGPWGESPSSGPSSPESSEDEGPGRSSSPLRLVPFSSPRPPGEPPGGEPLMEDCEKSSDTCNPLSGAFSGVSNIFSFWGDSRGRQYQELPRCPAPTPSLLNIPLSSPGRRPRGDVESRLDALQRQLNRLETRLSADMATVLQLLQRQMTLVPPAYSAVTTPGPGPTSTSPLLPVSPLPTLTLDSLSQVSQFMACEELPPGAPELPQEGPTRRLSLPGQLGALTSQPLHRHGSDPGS

SMILES | IC50 (CYP3A4/CYP3A5) [nM] | CC50 at 72 h [1] [nM] | IC50 [2] [nM] | bioavailability [4] [%] | EC50 (SARS-CoV-2 [5]) [nM] | EC50 (SARS-CoV-2 [6]) [nM] | AUC [7] [ng·h/mL] | half-life [8] [h] | EC50 (SARS-CoV-2 [9]) [nM] | half-life [10] [h] | EC50 (SARS-CoV-2 [11]) [nM] | Papp A→B [12] [×10⁻⁶ cm/s] | EC50 (SARS-CoV-2 [13]) [nM] | half-life [14] [h] | Papp B→A [15] [×10⁻⁶ cm/s] | half-life [16] [h] | IC50 [18] [nM] | other results
Cc1ccc(C#N)cc1Cn1c(=O)n(-c2cncc(SC3CC3)c2)c(=O)[nH]/c1=N\c1cc2cn(C)nc2cc1Cl | 7880 | > 100000 | 19000 | 85 | 38.4 | 18.4 | 36000 | 0.85 | 4.8 | 0.242 | 21.7 | 2.07 | 20.9 | 3.3 | 6.01 | 2.2 | 5.8 | Activity [3]: Non-toxic; Activity [17]: Non-toxic
Cn1cc2cc(/N=c3\[nH]c(=O)n(-c4cccnc4)c(=O)n3Cc3cc(F)c(F)cc3F)c(Cl)cc2n1 |  | > 100000 |  | 103 | 211 | 165 | 206000 | 2.64 | 146 | 66.4 | 180 |  | 107 | 3.8 |  | 4.2 | 134 | Activity [19]: Non-toxic; Activity [20]: Non-toxic
Cn1cc2cc(/N=c3\[nH]c(=O)n(-c4cncc(O[C@H]5CCOC5)c4)c(=O)n3Cc3cc(Cl)c(F)cc3F)c(Cl)cc2n1 | > 50000 | > 100000 | > 30000 | 87 | 9.4 | 21.9 | 37400 | 3.85 | 20.6 | 1.72 | 27 | 1.36 | 8.2 | 2 | 32.7 | 1.6 | 13.5 | 
COCCOc1cncc(-n2c(=O)[nH]/c(=N\c3cc4cn(C)nc4cc3Cl)n(Cc3cc(C#N)ccc3C)c2=O)c1 | > 50000 | > 100000 | > 30000 | 44.1 | 31.1 | 13.7 | 9220 | 4.89 | 6.8 | 5.92 | 43 | 1.57 | 13.7 | 2.8 | 24.1 | 1.2 | 19.4 | 
COc1cncc(-n2c(=O)[nH]/c(=N\c3cc4cn(C)nc4cc3Cl)n(Cc3cc(Cl)c(F)cc3Oc3ccc(F)cc3)c2=O)c1 | 6870 | > 100000 | 16000 | 98 | 241 | 241 | 46700 | 1.59 | 303 | 1.99 | 364 | 0.11 | 82.2 | 5.1 | 0.94 | 4.6 | 50.6 | 
Cc1cncc(-n2c(=O)[nH]/c(=N\c3cc4cn(C)nc4cc3Cl)n(Cc3cc(C#N)ccc3Sc3ccc(Cl)s3)c2=O)c1 |  | > 100000 |  | 93 | 76.3 | 57.9 | 61400 |  | 21.8 |  | 65.3 |  | 63.6 | 2.73 |  | 2.48 | 12.3 | 
Cn1cc2cc(/N=c3\[nH]c(=O)n(-c4cncc(O[C@H]5CCOC5)c4)c(=O)n3Cc3cc(F)c(F)cc3F)c(Cl)cc2n1 |  | > 100000 |  | 108 | 33.8 | 69.9 | 25600 | 4.19 | 34 | 2.34 | 36.8 |  | 33.8 | 1.9 |  | 1.5 |  | 
